Assay results: patent US20230159453A1 (COCRYSTAL PHARMA, INC., priority 2020, published 2023)

target: SARS2 protease (Severe acute respiratory syndrome coronavirus 2, UniProt P0DTD1); test: SARS-CoV-2 protease inhibition assay (SARS2 FRET protease assay); assay type: biochemical; conditions: SARS-CoV-2 protease 25 nM, FRET, peptide substrate 1.3 μM, 30 minutes at 30° C., compounds 20 μM to 1.0 nM; read-out: IC50

Structure (SMILES)	IC50
CCOP(=O)(OCC)C(O)C(CC1CC2(CCN(C(C)=O)CC2)NC1=O)NC(=O)[C@H](Cc1cccc(F)c1)NC(=O)OCc1cccc(Cl)c1 (stereo partly drawn) [Compound C82, 3-Chlorobenzyl ((2S)-1-((3-(8-acetyl-2-oxo-1,8-diazaspiro[4.5]decan-3-yl)-1-(diethoxyphosphoryl)-1-hydroxypropan-2-yl)amino)-3-(3-fluorophenyl)-1-oxopropan-2-yl)carbamate]	4400 nM
CC(C)C[C@H](NC(=O)OCC(C)(C)c1cccc(Cl)c1)C(=O)NC(C)(C=O)CC1CCNC1=O (stereo partly drawn) [Compound C83, 2-(3-Chlorophenyl)-2-methylpropyl ((2S)-4-methyl-1-((2-methyl-1-oxo-3-(2-oxopyrrolidin-3-yl)propan-2-yl)amino)-1-oxopentan-2-yl) carbamate]	1300 nM
CCOP(=O)(OCC)C(O)C(CC1CC2(CCN(C(C)=O)CC2)NC1=O)NC(=O)[C@H](CC(C)C)NC(=O)OCC(C)(C)c1cccc(Cl)c1 (stereo partly drawn) [Compound C84, 2-(3-Chlorophenyl)-2-methylpropyl ((2S)-1-((3-(8-acetyl-2-oxo-1,8-diazaspiro[4.5]decan-3-yl)-1-(diethoxyphosphoryl)-1-hydroxypropan-2-yl)amino)-4-methyl-1-oxopentan-2-yl)carbamate]	9200 nM
CC(C)C[C@H](NC(=O)OC1CCN(C(=O)OC(C)(C)C)c2ccccc21)C(=O)N[C@@H](C[C@@H]1CCNC1=O)C(=O)C(=O)NCc1ccccn1 (stereo partly drawn) [Compound C86, Tert-butyl 4-((((S)-1-(((S)-3,4-dioxo-1-((S)-2-oxopyrrolidin-3-yl)-4-((pyridin-2-ylmethyl)amino)butan-2-yl)amino)-4-methyl-1-oxopentan-2-yl)carbamoyl)oxy)-3,4-dihydroquinoline-1(2H)-carboxylate]	900 nM
CC(C)C[C@H](NC(=O)OCC(C)(C)c1cccc(Cl)c1)C(=O)N[C@@H](C[C@@H]1CCNC1=O)C(=O)C(=O)NC1CC1 [Compound C87, 2-(3-Chlorophenyl)-2-methylpropyl ((S)-1-(((S)-4-(cyclopropylamino)-3,4-dioxo-1-((S)-2-oxopyrrolidin-3-yl)butan-2-yl)amino)-4-methyl-1-oxopentan-2-yl)carbamate]	700 nM
CC(C)C[C@H](NC(=O)OC1(Cc2cccc(Cl)c2)CC1)C(=O)N[C@@H](C[C@@H]1CCNC1=O)C(=O)C(N)=O [Compound C88, 1-(3-Chlorobenzyl) cyclopropyl ((S)-1-(((S)-4-amino-3,4-dioxo-1-((S)-2-oxopyrrolidin-3-yl)butan-2-yl)amino)-4-methyl-1-oxopentan-2-yl)carbamate]	1300 nM
CC(C)C[C@H](NC(=O)OCC(C)(C)c1cccc(Cl)c1)C(=O)N[C@@H](C[C@@H]1CCNC1=O)C(=O)C(N)=O [Compound C90, 2-(3-chlorophenyl)-2-methylpropyl ((S)-1-(((S)-4-amino-3,4-dioxo-1-((S)-2-oxopyrrolidin-3-yl)butan-2-yl)amino)-4-methyl-1-oxopentan-2-yl)carbamate]	100 nM
COc1cccc(CC2(OC(=O)N[C@@H](CC(C)C)C(=O)N[C@@H](C[C@@H]3CCNC3=O)C(=O)C(N)=O)CC2)c1 [Compound C93, 1-(3-Methoxybenzyl) cyclopropyl ((S)-1-(((S)-4-amino-3,4-dioxo-1-((S)-2-oxopyrrolidin-3-yl)butan-2-yl)amino)-4-methyl-1-oxopentan-2-yl) carbamate]	> 20000 nM
CCOP(=O)(OCC)C(O)C(CC1CC2(CCN(C(C)=O)CC2)NC1=O)NC(=O)[C@H](CC(C)C)NC(=O)c1cc2ccccc2[nH]1 (stereo partly drawn) [Compound C94, Diethyl (2-((S)-2-(1H-indole-2-carboxamido)-4-methylpentanamido)-3-(8-acetyl-2-oxo-1,8-diazaspiro[4.5]decan-3-yl)-1-hydroxypropyl)phosphonate]	2600 nM
CCOP(=O)(OCC)C(O)C(CC1CC2(CCN(C(C)=O)CC2)NC1=O)NC(=O)[C@H](CC(C)C)NC(=O)OCC1CCC(F)(F)CC1 (stereo partly drawn) [Compound C95, (4,4-Difluorocyclohexyl)methyl ((2S)-1-((3-(8-acetyl-2-oxo-1,8-diazaspiro[4.5]decan-3-yl)-1-(diethoxyphosphoryl)-1-hydroxypropan-2-yl)amino)-4-methyl-1-oxopentan-2-yl)carbamate]	7000 nM
CC(C)C[C@H](NC(=O)N(Cc1ccccc1)C1CCN(C(=O)OC(C)(C)C)CC1)C(=O)N[C@@H](C[C@@H]1CCNC1=O)C(=O)C(=O)NC1CC1 [Compound C98, Tert-butyl 4-(1-benzyl-3-((S)-1-(((S)-4-(cyclopropylamino)-3,4-dioxo-1-((S)-2-oxopyrrolidin-3-yl)butan-2-yl)amino)-4-methyl-1-oxopentan-2-yl)ureido)piperidine-1-carboxylate]	2200 nM
CC(C)C[C@H](NC(=O)OC(Cc1ccccc1)c1ccccc1)C(=O)N[C@@H](C[C@@H]1CCNC1=O)C(=O)C(N)=O (stereo partly drawn) [Compound C100, 1,2-Diphenylethyl ((S)-1-(((S)-4-amino-3,4-dioxo-1-((S)-2-oxopyrrolidin-3-yl)butan-2-yl)amino)-4-methyl-1-oxopentan-2-yl)carbamate]	1000 nM
CC(C)C[C@H](NC(=O)OCC(C)(C)c1cccc(Cl)c1)C(=O)N[C@H](CO)C[C@@H]1CCNC1=O [Compound C101, 2-(3-Chlorophenyl)-2-methylpropyl ((S)-1-(((S)-1-hydroxy-3-((S)-2-oxopyrrolidin-3-yl)propan-2-yl)amino)-4-methyl-1-oxopentan-2-yl)carbamate]	> 20000 nM
CC(=O)N1CC2(CC(CC(C=O)NC(=O)[C@H](CC(C)C)NC(=O)OCc3cccc(Cl)c3)C(=O)N2)C1 (stereo partly drawn) [Compound C102, 3-chlorobenzyl ((2S)-1-((1-(2-acetyl-6-oxo-2,5-diazaspiro[3.4]octan-7-yl)-3-oxopropan-2-yl)amino)-4-methyl-1-oxopentan-2-yl)carbamate]	118 nM
CC(C)(COC(=O)N[C@H](C(=O)N[C@H](C=O)C[C@@H]1CCNC1=O)C(C)(C)C)c1cccc(Cl)c1 [Compound C103, 2-(3-Chlorophenyl)-2-methylpropyl ((S)-3,3-dimethyl-1-oxo-1-(((S)-1-oxo-3-((S)-2-oxopyrrolidin-3-yl)propan-2-yl)amino)butan-2-yl)carbamate]	736 nM
CC(C)C[C@H](NC(=O)OC(Cc1cccc(Cl)c1)c1ccccc1)C(=O)N[C@H](C=O)C[C@@H]1CCNC1=O (stereo partly drawn) [Compound C104, 2-(3-Chlorophenyl)-1-phenylethyl ((S)-4-methyl-1-oxo-1-(((S)-1-oxo-3-((S)-2-oxopyrrolidin-3-yl)propan-2-yl)amino)pentan-2-yl) carbamate]	6 nM
CC(C)(c1cccc(Cl)c1)C(OC(=O)N[C@@H](CC1CCCCC1)C(=O)N[C@H](C=O)C[C@@H]1CCNC1=O)c1cccc(F)c1 (stereo partly drawn) [Compound C105, 2-(3-Chlorophenyl)-1-(3-fluorophenyl)-2-methylpropyl ((S)-3-cyclohexyl-1-oxo-1-(((S)-1-oxo-3-((S)-2-oxopyrrolidin-3-yl)propan-2-yl)amino)propan-2-yl)carbamate]	0.6 nM
CC(C)(c1cccc(Cl)c1)C(OC(=O)N[C@@H](CC1CCCCC1)C(=O)N[C@H](C=O)C[C@@H]1CCNC1=O)c1cccc(Cl)c1 (stereo partly drawn) [Compound C106, 1,2-Bis(3-chlorophenyl)-2-methylpropyl ((S)-3-cyclohexyl-1-oxo-1-(((S)-1-oxo-3-((S)-2-oxopyrrolidin-3-yl)propan-2-yl)amino)propan-2-yl)carbamate]	0.1 nM
CC(C)C[C@H](NC(=O)OCC1CCC(F)(F)CC1)C(=O)NC(C)(C=O)CC1CCNC1=O (stereo partly drawn) [Compound C107, (4,4-Difluorocyclohexyl) methyl ((2S)-4-methyl-1-((2-methyl-1-oxo-3-(2-oxopyrrolidin-3-yl)propan-2-yl)amino)-1-oxopentan-2-yl) carbamate]	6790 nM
CC(C)C[C@H](NC(=O)OC(c1ccccc1)C(C)(C)c1cccc(Cl)c1)C(=O)N[C@H](C=O)C[C@@H]1CCNC1=O (stereo partly drawn) [Compound C108, 2-(3-Chlorophenyl)-2-methyl-1-phenylpropyl ((S)-4-methyl-1-oxo-1-(((S)-1-oxo-3-((S)-2-oxopyrrolidin-3-yl)propan-2-yl)amino)pentan-2-yl) carbamate]	1.2 nM
O=C[C@H](C[C@@H]1CCNC1=O)NC(=O)[C@H](CC1CCCCC1)NC(=O)OC(Cc1cccc(Cl)c1)c1ccccc1 (stereo partly drawn) [Compound C109, 2-(3-Chlorophenyl)-1-phenylethyl ((S)-3-cyclohexyl-1-oxo-1-(((S)-1-oxo-3-((S)-2-oxopyrrolidin-3-yl)propan-2-yl)amino)propan-2-yl)carbamate]	2 nM
CC(C)(c1cccc(Cl)c1)C(OC(=O)N[C@@H](CC1CCCCC1)C(=O)N[C@H](C=O)C[C@@H]1CCNC1=O)c1ccccc1 (stereo partly drawn) [Compound C110, 2-(3-Chlorophenyl)-2-methyl-1-phenylpropyl ((S)-3-cyclohexyl-1-oxo-1-(((S)-1-oxo-3-((S)-2-oxopyrrolidin-3-yl)propan-2-yl)amino)propan-2-yl) carbamate]	1.4 nM
CC(C)(COC(=O)N[C@H](C(=O)N[C@@H](C[C@@H]1CCNC1=O)C(O)S(=O)(=O)O)C(C)(C)C)c1cccc(Cl)c1 (stereo partly drawn) [Compound C111, Sodium (2S)-2-((S)-2-(((2-(3-chlorophenyl)-2-methylpropoxy)carbonyl)amino)-3,3-dimethylbutanamido)-1-hydroxy-3-((S)-2-oxopyrrolidin-3-yl)propane-1-sulfonate]	491 nM
CC(=O)N1CCC2(CC1)CC(CC(NC(=O)[C@@H](CC1CCCCC1)NC(=O)c1cc3ccccc3[nH]1)C(=O)C(N)=O)C(=O)N2 (stereo partly drawn) [Compound C112, N-((2R)-1-((1-(8-acetyl-2-oxo-1,8-diazaspiro[4.5]decan-3-yl)-4-amino-3,4-dioxobutan-2-yl)amino)-3-cyclohexyl-1-oxopropan-2-yl)-1H-indole-2-carboxamide]	185 nM
CC(C)(c1cccc(Cl)c1)C(OC(=O)N[C@@H](CC1CCCCC1)C(=O)N[C@@H](C[C@@H]1CCNC1=O)C(=O)C(N)=O)c1ccccc1 (stereo partly drawn) [Compound C113, 2-(3-Chlorophenyl)-2-methyl-1-phenylpropyl ((S)-1-(((S)-4-amino-3,4-dioxo-1-((S)-2-oxopyrrolidin-3-yl)butan-2-yl)amino)-3-cyclohexyl-1-oxopropan-2-yl) carbamate]	133 nM
